Tested on: T1, PPO (polyphenoloxidase from Pacific white shrimp cephalothorax)
T1 construct: gene proPO; crude native extract of cephalothorax powder; not purified; isoenzyme not identified (hemocyanin-derived activity not excluded); docking model 3WKY is not the assayed protein
Test: dopachrome absorbance at […] nm, Lineweaver-Burk
Assay type: biochemical, Penaeus vannamei
Conditions: no inhibitor (0 mg/mL); crude extract; pH 6.0, 45 °C per activity assay; unit as in table footnote but substrate was dosed 2.5-25 mM, so unit is doubtful (possibly mM)

Concentration (mg/mL) / 0: 7.0695 mg/mL
SMILES: N[C@@H](Cc1ccc(O)c(O)c1)C(=O)O [L-DOPA]

— paper PMC10385636, “Inhibition Mechanism of Chitooligosaccharide-Polyphenol Conjugates toward Polyphenoloxidase from Shrimp Cephalothorax” (Molecules, 2023)
